Data published in patent US12403167B2, “Phenylethanoid glycoside extract from Acanthus ilicifolius L., preparation method thereof and use as anti-liver injury medicament” (OCEAN UNIVERSITY OF CHINA, priority 2019, dated 2025).

What was measured:
[1] = test system: CCl4-induced acute liver injury mice; assay: SOD and MDA in liver tissue homogenate of CCl4-induced liver injury mice; type: in vivo; conditions: 150 mg/kg once/d for 3 days before CCl4; liver 8 h after CCl4; n = 8, x ± s
Procedure: Forty eight C57 mice (20-22 g) of both genders were supplied by the Experimental Animal Center of Hubei Province, China (NO. 42000600033017). The above 48 mice were randomly divided into 6 groups (8 mice each group), and the phenylethanoid glycoside extract of the present disclosure (the phenylethanoid glycoside group, APhGs) were intraperitoneally injected with the doses of 300 mg/kg (high dose group), 150 mg/kg (medium dose group), and 75 mg/kg (low dose group). The positive group was given silybin (150 mg/kg), and the normal group, as well as model group was given normal saline. All groups were treated as above once/d for 3 consecutive days. Two hours after the last administration, the normal group was intraperitoneally injected with 15 μL of olive oil/mouse, and the other groups were intraperitoneally injected with 15 μL of 50% CCl4 (diluted with olive oil 1:1)/mouse. Eight hours later, all the mice were anesthetized. […]
The detection of SOD and MDA of liver homogenate samples from each group mice were conducted according to the instructions of ELISA kit for SOD and MDA. The OD values of liver SOD at 550 nm and MDA at 532 nm were obtained by a microplate reader, respectively. The SOD and MDA enzyme activities were calculated based on the OD values. […]

L-02 hepatocytes = assay: CCl4-induced L-02 hepatocyte damage, CCK-8 cell viability; type: cell-based; conditions: 20 μg/mL, 15 mM CCl4, 24 h, CCl4 model group 24.22±0.33%
Procedure: L-02 hepatocytes were provided by the China Center for Type Culture Collection (CCTCC). The L-02 hepatocytes were cultured in a medium containing 1640 complete culture medium and DMEM complete medium with 5% CO2 at a constant temperature (37° C.). The cells were harvested in the exponential growth phase. A suspension of 1×10^6 cells/mL was prepared, and then 100 μL of this suspension was added to each well of a 96-well plate with tested medium. The groups were divided into: normal group, negative control group, CCl4 model group, positive group (silybin), and high-, medium-, and low-dosage APhGs groups. After incubation for 24 h, the cells in the experimental group and the positive group were treated with different concentrations of APhGs and silybin. Both the CCl4 model group and the negative control group were added with the same amount of DMSO. Each treatment was repeated five times. […]
Determination of cell viability: 10 μL of CCK8 was added to each well to incubate at 37° C. for 2 h. The culture plates were measured with a microplate reader to obtain the absorbances at 450 nm. The cell viability values were calculated by the following formula: Cell viability (%)=(ODsample−ODblank)×100/(ODcontrol−ODblank)
ODsample was the absorbance of the experimental group, ODcontrol was the absorbance of the negative control group, ODblank was the absorbance of the blank control.

[2] = test system: CCl4-induced acute liver injury mice; assay: Serum ALT, AST, SOD and MDA in CCl4-induced liver injury mice; type: in vivo; conditions: 150 mg/kg once/d for 3 days before CCl4; blood 8 h after CCl4; n = 8, x ± s
Procedure: Forty eight C57 mice (20-22 g) of both genders were supplied by the Experimental Animal Center of Hubei Province, China (NO. 42000600033017). The above 48 mice were randomly divided into 6 groups (8 mice each group), and the phenylethanoid glycoside extract of the present disclosure (the phenylethanoid glycoside group, APhGs) were intraperitoneally injected with the doses of 300 mg/kg (high dose group), 150 mg/kg (medium dose group), and 75 mg/kg (low dose group). The positive group was given silybin (150 mg/kg), and the normal group, as well as model group was given normal saline. All groups were treated as above once/d for 3 consecutive days. Two hours after the last administration, the normal group was intraperitoneally injected with 15 μL of olive oil/mouse, and the other groups were intraperitoneally injected with 15 μL of 50% CCl4 (diluted with olive oil 1:1)/mouse. Eight hours later, all the mice were anesthetized. Then blood was collected by cardiac puncture, and liver tissue was collected for testing biochemical indexes and making pathological sections.
The detection of alanine aminotransferase (ALT) and aspartate aminotransferase (AST) of serum samples from each group mice were conducted according to the instructions of ELISA kit for ALT and AST. The absorbances (OD values) of serum ALT and AST at 450 nm were obtained by a microplate reader. The ALT and AST enzyme activities were calculated based on the OD values.
The detection of superoxide dismutase (SOD) and malondialdehyde (MDA) of serum samples from each group of mice were conducted according to the instructions of ELISA kit for SOD and MDA. The OD values of serum SOD at 550 nm and MDA at 532 nm were obtained by a microplate reader, respectively. The SOD and MDA enzyme activities were calculated based on the OD values.
Immunohistochemical analysis software: Image-pro plus 6.0 (Media Cybernetics, Inc., Rockville, MD, USA); experimental data statistical software: GraphPad Prism 7. The results were represented by mean values ±standard deviation (x±s). The difference P<0.05 meant statistically significant.

COc1cc(C2Oc3cc([C@H]4Oc5cc(O)cc(O)c5C(=O)[C@@H]4O)ccc3OC2CO)ccc1O (stereo partly shown) [Positive group, silybin]
liver tissue MDA [1]: 0.56 ± 0.08 nmol/mg prot
liver tissue SOD [1]: 610.91 U/mg prot
cell survival rate (L-02 hepatocytes): 35.92±2.15%
serum ALT [2]: 736.27 U/L
serum AST [2]: 776.68 U/L
serum MDA [2]: 8.32 µM
serum SOD [2]: 743.47 U/mL
